Target: T1, Human Type I Steroid 5α-Reductase (Homo sapiens, UniProt P18405)
T1 construct: Preparation of Type I 5α-Reductase from Human Scalp; from tissue; host or cells: human scalp skin (punch biopsies from hair transplant graft recipient sites), 100,000 x g pellet of homogenate
T1 sequence (P18405 1-259): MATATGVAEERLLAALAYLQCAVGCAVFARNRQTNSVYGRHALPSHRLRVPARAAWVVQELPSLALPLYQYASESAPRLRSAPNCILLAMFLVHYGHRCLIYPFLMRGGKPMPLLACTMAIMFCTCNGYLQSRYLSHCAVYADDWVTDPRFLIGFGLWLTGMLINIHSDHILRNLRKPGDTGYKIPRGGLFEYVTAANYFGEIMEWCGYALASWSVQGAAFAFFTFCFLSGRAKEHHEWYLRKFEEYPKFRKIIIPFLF
Experiment: Human Type I Steroid 5α-Reductase homogenate assay (human scalp enzyme; conversion of [3H]-testosterone to [3H]-5α-dihydrotestosterone and other 5α-reduced metabolites)
Format: biochemical
Conditions: 0.3 μM; compared to control reaction mixtures; 50 nM [3H]-testosterone, pH 7.5, 25°, 180 min
Description: Methodology of Human Type I Steroid 5α-Reductase Assays
The subcutaneous tissue was cut away and discarded. The skin was frozen with liquid nitrogen and pulverized to powder. […] The homogenization procedure consisted of four 15 second pulses. Connective tissue was cleared from the probe with forceps between pulses. […] The pellet was resuspended by homogenization with a Dounce homogenizer using the same buffer solution. An aliquot was taken for protein determination by the Lowry method, Lowry, et al., Protein Measurement with the Folin Phenol Reagent, J. Biol. Chem., 193, 265-75 (1951). Aliquots of the enzyme preparation were stored at -80° until use.
The reaction was initiated by the addition of 0.5 mg of Type I 5α-reductase. The reaction mixture was incubated at 25° for 180 min, and terminated by the addition of 1 mL ice-cold stopping solution. […] The samples were prepared for high performance liquid chromatography by solid phase extraction. […] The reaction mixtures were then applied to the columns. The columns were subsequently washed with 5 mL of acetone:water (1:4), followed by 0.3 mL of methanol. The samples were then eluted with 3 mL of methanol and collected in 20 mL scintillation vials. Three mL of water was then added to each scintillation vial. […] The column temperature was maintained at 35° and the flow rate was 1.5 mL/min.

Row | percent inhibition of Type I 5AR [%] | Molecule
1 | 13 | CN1C(=O)CC[C@]2(C)c3ccc(-c4cccc(NC(=O)C(C)(C)C)c4)cc3CC[C@@H]12 [Example 34, (+)-(4aR)-(10bR)-4-methyl-8-(3-t-butylcarboxamidophenyl)-10b-methyl-1,2,3,4,4a,5,6,10b-octahydrobenzo[f]quinolin-3-one]
2 | 24 | CN1C(=O)CC[C@]2(C)c3ccc(-c4cccc(NC(=O)C5CCN(Cc6ccccc6)CC5)c4)cc3CC[C@@H]12 [Example 209, (+)-(4aR)-(10bR)-4-methyl-8-(3-[1-benzyl-4-piperidinyl-carboxamido]phenyl)-10b-methyl-1,2,3,4,4a,5,6,10b-octahydrobenzo[f]quinolin-3-one]
3 | 90 | (+)-(4aR)-(10bR)-4-methyl-8-benzyloxycarbonyl-10b-methyl-1,2,3,4,4a,5,6,10b-octahydrobenzo[f]quinolin-3-one [Example 144]
4 | 86 | CN1C(=O)CC[C@]2(C)c3ccc(-c4ccc(-c5ccc(NC(=O)C(C)(C)C)s5)cc4)cc3CC[C@@H]12 [Example 222, (+)-(4aR)-(10bR)-4-methyl-8-(4-[(2-t-butylcarbonylamino]-5-thienyl]phenyl)-10b-methyl-1,2,3,4,4a,5,6,10b-octahydro-benzo[f]quinolin-3-one]

Source: patent US5670514A, “Compositions for inhibiting bone loss” (priority 1996, dated 1997)
